System in the first data set: not listed separately
Description: Polarity: interfacial tension toward water.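 Note: polarity expressed as oil–water interfacial tension in mN/m, lower values meaning a more polar oil, with medium-polar lipids falling between 20 and 30 mN/m.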 The following applies: medium-polar lipids. Format: physicochemical.
Description: For the purposes of the present invention, lipids are regarded as being polar if their interfacial tension toward water is less than 20 mN/m, and as nonpolar if their interfacial tension toward water is more than 30 mN/m. Lipids with an interfacial tension toward water between 20 and 30 mN/m are generally referred to as medium-polar.
`CCCCCCCCCCCCCCCC(=O)OCCCCCCCC` [Cegesoft C24, Octyl Palmitate] gave a Polarity of 23.1 mN/m.
Still for that read-out and setting: for `CCCCCCCCCC(=O)OCCCC(C)C` [Dermol IHD, Isohexyl decanoate] the value was 29.7 mN/m.
Same read-out and setting: then `CCCCCCC(CCCC)C(=O)O` (stereo not drawn) [Isocarb 12, Butyl Octanoic acid], with 22.1 mN/m.
Regarding `CCCCCCCCCCC(CO)CCCCCCCC` (stereo not drawn) [Eutanol G, Octyldodecanol], the Polarity is listed as 24.8 mN/m.
In the case of `CCCCCCCC(=O)OCCCCCCCC(C)C` [Dermol 108, Isodecyl Octanoate], the Polarity is 29.6 mN/m.
Still for that read-out and setting: then `CCCCCCCC(=O)OCC(COC(=O)CCCCCCC)OC(=O)CCCCCCC` [Trivent OCG, Tricaprylin], with 20.2 mN/m; and `CCCCCCCCCCCCCCCCCC(=O)OC(C)C` [Isopropyl stearate, Isopropyl Stearate], with 21.9 mN/m.
Same read-out and setting: for `CC(C)CCCCCCCOC(=O)C(C)(C)C` [DUB VCI 10, Isodecyl Neopentanoate] the value was 29.9 mN/m; for `CCCCCCCCCCCCCC(=O)OCC(CCCCCCCC)CCCCCCCCCC` (stereo not drawn) [M.O.D., Octyldodecyl Myristate], 22.1 mN/m.
Still for that read-out and setting: then “Isotridecyl 3,5,5 Trimethylhexanonanoate [Dermol 139]”, with 24.5 mN/m; and `CC(C)CCCCCCCOC(=O)CC(C)CC(C)(C)C` (stereo not drawn) [Dermol 109, Isodecyl 3,5,5 Trimethyl Hexanoate], with 29.1 mN/m; and `CCCCCCOCCCCCC` [Dihexyl Ether], with 29.2 mN/m.
The compound `CCCCC(CC)C(=O)OCCC(C)CC(C)(C)C` (stereo not drawn) [Dermol 98, 2-Ethylhexanoic acid 3,5,5-Trimethyl ester] displayed a Polarity of 26.2 mN/m.

The same data set, now with this note: nonpolar lipids.
Compound `CCCCCCCC(=O)OC(=O)CCCCCCC` [Cetiol OE, Dicaprylyl Ether] had a Polarity of 30.9 mN/m.
The same measure, in the same setting: then `CCCCC(CC)COC(=O)CCCCCC(C)C` (stereo not drawn) [Dermol 89, 2-Ethylhexyl Isononanoate], with 31.0 mN/m; and `CCCCCCCCCCCCCC(C)C` [Solvent ICH, Isohexadecane], with 43.8 mN/m.
As for Dioctylcyclohexane [Cetiol S], the Polarity is 39.0 mN/m.
`CC(CCOC(=O)CC(C)CC(C)(C)C)CC(C)(C)C` (stereo not drawn) [Dermol 99, Trimethylhexyl Isononanoate] registered a Polarity of 31.1 mN/m.
On to `CCCCCCCCCCCCCCCCCC(C)C` [Isoeicosane], for which the Polarity is 41.9 mN/m.
The same measure, in the same setting: for Isocetyl Palmitate [Tegosoft HP] the value was 36.2 mN/m; for `CCCCCCCC/C=C\CCCCCCCC(=O)OCCOCCOCC` [Softcutol O, Ethoxydiglycol Oleate], 40.5 mN/m; for `O1[SiH2]O[SiH2]O[SiH2]O[SiH2]O[SiH2]1` (stereo not drawn) [Dow Corning Fluid 245, Cyclopentasiloxane], 32.3 mN/m.
On the same count and under the same terms, then `CCCCCCOC(=O)OCCCCCC` [Dihexyl carbonate, Dihexyl Carbonate], with 30.9 mN/m; and `CCCCCCCCOC(=O)CCCCCCCCCCCCCCC(C)C` [Prisorine 2036, Octyl Isostearate], with 31.6 mN/m.

Staying with this data set, now noted: polar lipids.
`CCCCOC(=O)CCCCC(=O)OCCCC` [Cetiol B, Dibutyl Adipate] gave a Polarity of 14.3 mN/m.
On the same count and under the same terms, for Triisostearin [Prisorine 2041 GTIS] the value was 2.4 mN/m.
On the same count and under the same terms, then `CC(C)CCCCCCCCCCCCCCC(=O)O.CC(O)CO` [Emerest 2384, Propylene Glycol Monoisostearate], with 6.2 mN/m; and `CCCCCCCCCCCCCCCCCCOC(=O)CCCCCC` [Tegosoft SH, Stearyl Heptanoate], with 17.8 mN/m.
Still for that read-out and setting: for PEG 2 Diethylene hexanoate [Dermol 488] the value was 10.1 mN/m.

The data set is the same for the next values; noted with them: silicone oils.
Compound `O1[SiH2]O[SiH2]O[SiH2]O[SiH2]O[SiH2]1` (stereo not drawn) [Dow Corning Fluid 245, Cyclopentasiloxane] returned a Polarity of 32.3 mN/m.

The subject of a further data set is insects.
Assay: not given
The following applies: cited from earlier work.
For the compound `COC(=O)c1ccccc1C(=O)OC` [Dimethyl phthalate], the “effective against (pests repelled)” value is “mosquitoes (in particular Aedes and Anopheles species)”.
As for `CCCCN(CCC(=O)OCC)C(C)=O` [Repellent 3535, ethyl 3-(N-n-butyl-N-acetylamino)propionate], the “effective against (pests repelled)” value is “mosquitoes (Aedes aegypti, Anopheles albimanus), tsetse flies (Glossinae) and horse-flies (Tabanidae)”.
Consider `CCN(CC)C(=O)c1cccc(C)c1` [DEET, N,N-diethyl-3-methylbenzamide], for which the “effective against (pests repelled)” value is “mosquitoes, horse-flies, sand-flies, ticks, biting flies, mites, fleas and bugs”.

Still in this data set, the particulars now being: pests repelled, table of further repellents; cited from earlier work.
Consider `CCCCOCCOCCOCc1cc2c(cc1CCC)OCO2` [Piperonyl butoxide], for which the “Effectiveness (literature and manufacturer details)” value (from here on “Effectiveness”) is reported as “synergist^2”.
`CCCC(O)C(CC)CO` (stereo not drawn) [2-Ethylhexane-1,3-diol]: the “Effectiveness” value was “mosquitoes, horse-flies, flies, fleas, mites^1”.
Turning to `O=CC12CC=CCC1C1CC=CCC1O2` (stereo not drawn) [2,3;4,5-bis(2-Butylene)tetrahydro-2-furaldehyde], the “Effectiveness” value was “cockroaches and biting insects^1”.
Take `CCCCCCCC(=O)N(CC)CC` [N,N-Diethyl caprylamide]: the “Effectiveness” value was “cockroaches, mosquitoes, house files, horse-flies, ants, arachnids”.
Take `CCCCC(CC)CN1C(=O)C2C3C=CC(C3)C2C1=O` (stereo not drawn) [N-Octylbicycloheptenedicarboximide]: the “Effectiveness” value is recorded as “synergist^2”.
With `COC(=O)C1C2C=CC(C2)C1C(=O)OC` (stereo not drawn) [Dimethyl carbate], the “Effectiveness” value is recorded as “mosquitoes, in particular of the Aedes species^1”.

Source of the values: patent publication US20070079447A1, “Insect repellent textile” (Beiersdorf AG, priority 2003, published 2007).
